Results on 19 compounds are retold here after patent US11161825B2, “4-oxo-2,3,4,5-tetrahydro-1H-1,5-benzodiazepine-7-carboxamides” (Bayer Aktiengesellschaft, priority 2017, dated 2021).

Assay [1] deals with T1, untagged full length SMYD3 (Homo sapiens, UniProt Q9H7B4).
T1 construct: As protein untagged full length SMYD3 was used
T1 sequence (Q9H7B4 1-428): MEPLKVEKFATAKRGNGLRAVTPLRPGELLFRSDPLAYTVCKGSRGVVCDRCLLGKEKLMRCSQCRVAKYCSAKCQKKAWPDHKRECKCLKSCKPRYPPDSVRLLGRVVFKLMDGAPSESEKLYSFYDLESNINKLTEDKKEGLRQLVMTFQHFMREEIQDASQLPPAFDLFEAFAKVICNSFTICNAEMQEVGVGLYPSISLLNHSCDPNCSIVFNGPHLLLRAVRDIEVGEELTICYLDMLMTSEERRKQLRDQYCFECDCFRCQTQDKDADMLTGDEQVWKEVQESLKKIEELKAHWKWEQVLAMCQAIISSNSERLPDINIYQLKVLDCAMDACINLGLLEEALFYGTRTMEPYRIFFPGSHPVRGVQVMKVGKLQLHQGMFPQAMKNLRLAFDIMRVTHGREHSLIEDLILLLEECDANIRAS
Put plainly: Thermal Shift Assay. Type of assay: binding. The conditions noted are these: protein 1.5-2.0 μM, 5× SYPRO Orange, scans 25° C. to 80° C.; control 4% DMSO. Here is the method:
Thermal Shift Assay Thermal melting experiments were performed with a ViiA™ Real-Time PCR machine (Thermo Fisher Scientific) in 384-well microliter plate with a final volume of 5 μL. Melting curves were obtained at a protein concentration of 1.5-2.0 μM and 5× SYPRO Orange (Invitrogen) using buffer containing 20 mM Tris pH7.0; 150 mM NaCl; 1.0 mM DTT. As protein untagged full length SMYD3 was used. […] As control 4% DMSO was used. Scans were measured from 25° C. to 80° C. at a scanning rate of 0.1° C./sec. All TSA data were analyzed by using Genedata Assay Analyzer.

A further assay addresses T2, SMYD3 (Homo sapiens, UniProt Q9H7B4).
T2 construct: The SMYD3 full length enzyme was produced in-house by expression (with an N-terminal 6×His tag) in E. coli; 6xHis (N); made in house; host or cells: E. coli
T2 sequence (Q9H7B4 1-428): T1 sequence (Q9H7B4 1-428)
The assay can be described thus: SMYD3 Scintillation Proximity Assay (SPA), methylation of MAP3K2 Peptide. The conditions noted are these: SMYD3 full length enzyme 10 nM, 3H-SAM 125 nM, MAP3K2 Peptide 1 μM, 120 min at 22° C. The format is biochemical. The protocol:
SMYD3 Scintillation Proximity Assay (SPA)
The SMYD3 full length enzyme was produced in-house by expression (with an N-terminal 6×His tag) in E. coli and purification by affinity chromatography on a Ni-NTA Sepharose column followed by a size exclusion chromatography step on a Superdex 200 16/60 column (GE Healthcare).
To this end, 100-fold concentrated compound solutions (in DMSO) were previously prepared by serial dilution (1:3.4) of 2 mM stocks in a clear low volume 384-well source microtiter plate (Greiner Bio-One), from which 100 nl of compounds were transferred into a white low volume test microtiter plate from the same supplier. […] The resulting mixture (5 μl final volume) was shortly centrifuged (2 min., 1500 rpm) and incubated at 22° C. during 120 min. […] Plates containing the stopped reaction were sealed with transparent adhesive foil (Perkin Elmer), centrifuged (2 min., 1500 rpm), and further incubated overnight at 4° C. in order to allow the SPA signals to develop. Subsequently, the amount of product was evaluated by measuring the energy transfer from the […] emitted by the 3H-labeled substrate to the scintillator co-polymerized in the bead's matrix, using a TopCount NXT scintillation counter (Packard) with the standard instrument settings for this purpose. The resulting scintillation counts were taken as indicator for the amount of methylated peptide per well. […] IC50 values were calculated by fitting the normalized inhibition data to a 4-parameter logistic equation using the XLFit analysis software (IDBS).
For orientation: SPA uses beads or plates that emit light when radiolabelled molecules are held near them.

SMILES strings stand for the structures.

For the compound `C[C@H]1CC(=O)Nc2cc(C(=O)NCCC3CC3)ccc2N1C(=O)N1CC[C@@H](N)C1.Cl` [Example 39, (2S)-1-{[(3R)-3-aminopyrrolidin-1-yl]carbonyl}-N-(2-cyclopropylethyl)-2-methyl-4-oxo-2,3,4,5-tetrahydro-1H-1,5-benzodiazepine-7-carboxamide hydrochloride (1:1)], the “Thermal shift assay (° C.)” value in assay [1] was 7.25 °C. It took 0.584 µM to reach half-maximal inhibition against SMYD3 (IC50).

Take `Cc1nocc1C(=O)N1c2ccc(C(=O)NCCC3CC3)cc2NC(=O)C(C)C1C` (single isomer, unassigned) [Example 11, N-(2-cyclopropylethyl)-2,3-dimethyl-1-[(3-methyl-1,2-oxazol-4-yl)carbonyl]-4-oxo-2,3,4,5-tetrahydro-1H-1,5-benzodiazepine-7-carboxamide]: the “Thermal shift assay (° C.)” value in assay [1] was 3.50 °C. The IC50 (as a rule, the concentration needed to halve the response being measured) at SMYD3 was found to be 12.9 µM.

As for `CC1CC(=O)Nc2cc(C(=O)NCCC3CC3)ccc2N1C(=O)c1ccccc1` (racemic) [Example 1, 1-benzoyl-N-(2-cyclopropylethyl)-2-methyl-4-oxo-2,3,4,5-tetrahydro-1H-1,5-benzodiazepine-7-carboxamide], in assay [1], the “Thermal shift assay (° C.)” value amounted to 5.27 °C. The compound further showed an IC50 at SMYD3 of 1.66 µM.

Consider `CC1C(=O)Nc2cc(C(=O)NCCC3CC3)ccc2N(C(=O)N2CCC(N)CC2)C1C` (mixture of isomers) [Example 19, 1-[(4-aminopiperidin-1-yl)carbonyl]-N-(2-cyclopropylethyl)-2,3-dimethyl-4-oxo-2,3,4,5-tetrahydro-1H-1,5-benzodiazepine-7-carboxamide], for which the “Thermal shift assay (° C.)” value in assay [1] is 10.30 °C. For the same compound, on SMYD3, inhibition was half-maximal at 0.0372 µM (IC50).

For the compound `C[C@H]1CC(=O)Nc2cc(C(=O)NCCC3CC3)ccc2N1C(=O)N1CCC(NCC(F)(F)F)CC1` [Example 29, (2S)—N-(2-cyclopropylethyl)-2-methyl-4-oxo-1-({4-[(2,2,2-trifluoroethyl)amino]piperidin-1-yl}carbonyl)-2,3,4,5-tetrahydro-1H-1,5-benzodiazepine-7-carboxamide], the “Thermal shift assay (° C.)” value in assay [1] was determined as 5.51 °C. At SMYD3, this compound returned an IC50 of 0.679 µM.

For the compound `Cc1nocc1C(=O)N1c2ccc(C(=O)NCCC3CC3)cc2NC(=O)C(C)C1C` (single isomer, unassigned) [Example 10, N-(2-cyclopropylethyl)-2,3-dimethyl-1-[(3-methyl-1,2-oxazol-4-yl)carbonyl]-4-oxo-2,3,4,5-tetrahydro-1H-1,5-benzodiazepine-7-carboxamide], the “Thermal shift assay (° C.)” value in assay [1] is 1.29 °C. The IC50 at SMYD3 was greater than 20 µM.

With `Cc1nocc1C(=O)N1c2ccc(C(=O)NCCC3CC3)cc2NC(=O)C(C)C1C` (single isomer, unassigned) [Example 8, N-(2-cyclopropylethyl)-2,3-dimethyl-1-[(3-methyl-1,2-oxazol-4-yl)carbonyl]-4-oxo-2,3,4,5-tetrahydro-1H-1,5-benzodiazepine-7-carboxamide], in assay [1], the “Thermal shift assay (° C.)” value worked out at 3.77 °C. On SMYD3, this compound yielded an IC50 of 4.9 µM.

Turning to `CC1C(=O)Nc2cc(C(=O)NCCC3CCC3)ccc2N(C(=O)N2CCC(N)CC2)C1C` (single isomer, unassigned) [Example 21, 1-[(4-aminopiperidin-1-yl)carbonyl]-N-(2-cyclobutylethyl)-2,3-dimethyl-4-oxo-2,3,4,5-tetrahydro-1H-1,5-benzodiazepine-7-carboxamide], in assay [1], the “Thermal shift assay (° C.)” value was found to be 9.35 °C. Besides, half-maximal inhibition on SMYD3 (IC50) was put at 0.0542 µM.

Turning to `CC1C(=O)Nc2cc(C(=O)NCCC3CCC3)ccc2N(C(=O)c2ccccc2)C1C` (mixture of isomers) [Example 4, 1-benzoyl-N-(2-cyclobutylethyl)-2,3-dimethyl-4-oxo-2,3,4,5-tetrahydro-1H-1,5-benzodiazepine-7-carboxamide], the “Thermal shift assay (° C.)” value in assay [1] turned out to be 4.38 °C. The compound also returned an IC50 against SMYD3 of 1.23 µM.

In the case of `CCCCCNC(=O)c1ccc2c(c1)NC(=O)CC(C)N2C(=O)c1ccc(C)cc1` (racemic) [Example 47, 2-methyl-1-(4-methylbenzoyl)-4-oxo-N-pentyl-2,3,4,5-tetrahydro-1H-1,5-benzodiazepine-7-carboxamide], the “Thermal shift assay (° C.)” value in assay [1] worked out at 1.68 °C. In addition, the IC50 at SMYD3 was 22.1 µM.

Turning to `CCCCNC(=O)c1ccc2c(c1)NC(=O)CC(C)N2C(=O)c1cccc(F)c1` (racemic) [Example 52, N-butyl-1-(3-fluorobenzoyl)-2-methyl-4-oxo-2,3,4,5-tetrahydro-1H-1,5-benzodiazepine-7-carboxamide], the “Thermal shift assay (° C.)” value in assay [1] was 1.16 °C. Further, inhibition on SMYD3 was half-maximal at 18.3 µM (IC50).

Take `C[C@H]1CC(=O)Nc2cc(C(=O)NCCC3CC3)ccc2N1C(=O)N1CCC(F)(F)CC1` [Example 25, (2S)—N-(2-cyclopropylethyl)-1-[(4,4-difluoropiperidin-1-yl)carbonyl]-2-methyl-4-oxo-2,3,4,5-tetrahydro-1H-1,5-benzodiazepine-7-carboxamide]: the “Thermal shift assay (° C.)” value in assay [1] came out at 6.12 °C. The half-maximal inhibitory concentration (IC50) against SMYD3 was found to be 2.3 µM.

As to `C[C@H]1CC(=O)Nc2cc(C(=O)NCCC3CC3)ccc2N1C(=O)N1CCN(CC(F)(F)F)CC1` [Example 30, (2S)—N-(2-cyclopropylethyl)-2-methyl-4-oxo-1-{[4-(2,2,2-trifluoroethyl)piperazin-1-yl]carbonyl}-2,3,4,5-tetrahydro-1H-1,5-benzodiazepine-7-carboxamide], the “Thermal shift assay (° C.)” value in assay [1] amounted to 5.69 °C. The IC50 against SMYD3 turned out to be 0.787 µM.

Turning to `CC1C(=O)Nc2cc(C(=O)NCCC3CCC3)ccc2N(C(=O)N2CCC(N)CC2)C1C` (single isomer, unassigned) [Example 22, 1-[(4-aminopiperidin-1-yl)carbonyl]-N-(2-cyclobutylethyl)-2,3-dimethyl-4-oxo-2,3,4,5-tetrahydro-1H-1,5-benzodiazepine-7-carboxamide], in assay [1], the “Thermal shift assay (° C.)” value was 9.50 °C. The IC50 against SMYD3 is 0.0223 µM.

For the compound `C[C@H]1CC(=O)Nc2cc(C(=O)NCCC3CC3)ccc2N1C(=O)N(C)C1CCNCC1` [Example 45, (2S)—N^7-(2-cyclopropylethyl)-N^1,2-dimethyl-4-oxo-N^1-(piperidin-4-yl)-2,3,4,5-tetrahydro-1H-1,5-benzodiazepine-1,7-dicarboxamide], in assay [1], the “Thermal shift assay (° C.)” value turned out to be 7.24 °C. In addition, the IC50 on SMYD3 was 0.39 µM.

As for `CCCCNC(=O)c1ccc2c(c1)NC(=O)CC(C)N2C(=O)CCC1CCCC1` (racemic) [Example 51, N-butyl-1-(3-cyclopentylpropanoyl)-2-methyl-4-oxo-2,3,4,5-tetrahydro-1H-1,5-benzodiazepine-7-carboxamide], the “Thermal shift assay (° C.)” value in assay [1] was found to be 1.83 °C. The same compound registered an IC50 on SMYD3 of 24.4 µM.

For the compound `CCCCCNC(=O)c1ccc2c(c1)NC(=O)CC(C)N2C(=O)C1CCCC1` (racemic) [Example 48, 1-(cyclopentylcarbonyl)-2-methyl-4-oxo-N-pentyl-2,3,4,5-tetrahydro-1H-1,5-benzodiazepine-7-carboxamide], the “Thermal shift assay (° C.)” value in assay [1] was determined as 1.60 °C. Also, the IC50 at SMYD3 was 26.7 µM.

Turning to `CCN1CCC(N(C)C(=O)N2c3ccc(C(=O)NCCC4CC4)cc3NC(=O)C[C@@H]2C)CC1` [Example 28, (2S)—N^7-(2-cyclopropylethyl)-N^1-(1-ethylpiperidin-4-yl)-N^1,2-dimethyl-4-oxo-2,3,4,5-tetrahydro-1H-1,5-benzodiazepine-1,7-dicarboxamide], in assay [1], the “Thermal shift assay (° C.)” value was determined as 9.94 °C. The compound also showed an IC50 on SMYD3 of 0.13 µM.

Consider `C[C@H]1CC(=O)Nc2cc(C(=O)NCCC3CC3)ccc2N1C(=O)N1CCN(CCO)CC1` [Example 26, (2S)—N-(2-cyclopropylethyl)-1-{[4-(2-hydroxyethyl)piperazin-1-yl]carbonyl}-2-methyl-4-oxo-2,3,4,5-tetrahydro-1H-1,5-benzodiazepine-7-carboxamide], for which the “Thermal shift assay (° C.)” value in assay [1] is 6.08 °C. For the same compound, the IC50 against SMYD3 was found to be 1.26 µM.
